Test results reported in US5283243A, “Piperidinoalkylbenzoxazine and piperidinoalkylbenzothiazine compounds, and medicaments containing them” (Kali-Chemie Pharma GmbH, priority 1990, dated 1994).
Like-named read-outs stand apart in the source and are kept apart here.

Columns and labels:
[1] = test system: cyclooxygenase (6-keto-PGF1α release); assay: Cyclooxygenase inhibition: 6-keto-PGF1α release from zymosan-stimulated mouse peritoneal macrophage cells; assay type: cell-based; conditions: Peritoneal macrophage cell, read-out: In vitro % inhibition upon release of 6-keto-PGF1α
Source text: (§1) 5. In vitro Determination of Cyclooxygenase Inhibition and 5-Lipoxygenase Inhibition
(§2) After a cell is activated, arachidonic acid contained in cell membranes is metabolized in two ways. Leucotrienes, inter alia leucotriene C4, are formed due to the action of the enzyme 5-lipoxyqenase (=5-LO), and prostanoids are formed due to the action of the enzyme cyclooxygenase (=CO). In in vitro systems these metabolites are secreted from the cell.
(§3) To evaluate the cyclooxygenase-inhibiting and 5-lipoxygenase-inhibiting properties of the test substances, their inhibitory activity on the biosynthesis of the arachidonic acid derivatives leucotriene C4 (=LTC4) and 6-keto-prostaglandin F1α (=6-keto-PGF1 α) was determined in vitro on mouse peritoneal macrophage cells. For this purpose the LTC4 and 6-keto-PGF1 α contents of a mouse peritoneal macrophage cell culture medium were determined by zymosan stimulation as described by Scott et al. (J. Exp. Med. 152 (1980), 324-335) and by Fradin et al., (Prostaglandins, 33 (1987), 579-589).
(§4) A cell suspension containing peritoneal cells from male mice 8-10 weeks old was obtained in a known manner. A solution marketed under the designation RPMI 1640 (Manufactured by Gibco) was used as the cell culture medium, to which heparin (10 international units/ml) and antibiotics were added according to the procedure of Bonney et al. (Biochem. J. 176 (1978) 422-433). The cell suspension was adjusted to a cell concentration of 10^6 cells per ml and distributed uniformly on titer dishes containing 24 1-ml titer cells (wells). These were kept for two hours in a humidified incubator filled with air enriched with 7% CO2. Cells not adhering to the titer well walls were then removed by washing. The remaining macrophage cells adhering to the walls were incubated for about 12 hours in a suspension medium to which 0.1% of bovine serum albumin (BSA=Bovine Serum Albumin) was added. The suspension medium was then replaced by a Hanks salt solution (=Hanks Balanced Salt Solution=HBSS) with 10 mmoles of Hepes (=hydroxyethylpiperazinoethanesulfonic acid) to which a 0.1% strength solution of the test substances in aqueous, 1% strength dimethylformamide or only the solvent had been added. After 15 minutes the arachidonic acid metabolism was stimulated by adding […] of zymosan (=glycoprotein mixture isolated from cell walls of beer yeast, Saccharomyces cerevisiae, Manufactured by Sigma Chemical Co., Munich) per titre cell. After 2 hours samples of the respective supernatant liquid in each cell were examined for their 6-keto-PGF1α and LTC4 contents by an enzyme immunoassay (=EIA). This EIA is carried out following the method of Pradelles et al. (Analytical Chem. 57 (1985), 1170-1173). The determination of LTC4 and the determination of 6-keto-PGF1α were each carried out on suitable dilutions of the samples (1:50 to 1:250 for the LTC4 determination and 1:250 to 1:1,250 for the 6-keto-PGF1α determination) in comparison with a comparative scale. To determine the inhibiting effect of a 10^-5 molar concentration of the compounds, the amounts of reference eicosanoid were determined, and the inhibiting effect was calculated therefrom in % inhibition compared to the measurements of the zymosan controls.

[2] = test system: 5-lipoxygenase (LTC4 release); assay: 5-Lipoxygenase inhibition: LTC4 release from zymosan-stimulated mouse peritoneal macrophage cells; assay type: cell-based; conditions: Peritoneal macrophage cell, read-out: In vitro % inhibition upon release of LTC4
Source text: as §1, §2, §3, §4

[3] = test system: PAF-induced aggregation of rabbit blood platelets; assay: Anti-PAF activity in vitro, inhibition of PAF-induced platelet aggregation; assay type: cell-based, rabbit (New Zealand hybrids); conditions: test substance concentration of 10^-5 mole/l, pH 7.4
Source text: 4. Determination of Anti-PAF Activity In Vitro
PAF (=Platelet Activating Factor) is a phospholipid mediator which has many effects. Activation of platelet aggregation induces protracted broncho-contraction and hyper-reactivity of the air paths.
In this test the effect of the test substances on platelet aggregation induced by adding PAF to a suspension of platelets obtained from rabbit blood is investigated using the method described by Mikashima et al. (Jap. J. Pharmacol. 44 (1987) 387-391).
A suspension of platelets obtained from rabbit blood containing 4×10^9 platelets/ml in a modified Tyrode buffer solution (=Tyrode solution with 1.3 mM/1 CaCl2 and 2.5 g/l gelatine added) adjusted to pH 7.4 was used. Tyrode solution is an aqueous solution containing 136.9 mmoles NaCl, 2.68 mmoles KCl, 2.31 mmoles CaCl2, 1.0 mmole MgCl2, 11.9 mmoles NaHCO3, 1.45 mmoles NaH2 PO4 and 5.55 mmoles glucose per liter. The platelets were obtained from 10 ml blood samples from each of three rabbits (New Zealand hybrids, body weight 3-4 kg). For this the blood samples were treated with ethylenediamine tetraacetic acid and washed according to the method of Artley et al. (Brit. J. Hematol. 19 (1970), 7-17). […]
To carry out the test 50 μl of the platelet suspension and 10 μl of a 40×10^-5 molar solution of the compound being investigated were added with stirring (1,000 rpm) to 330 μl of the modified Tyrode buffer solution in an aggregation tube provided with a small magnetic stirrer. […] The aggregation occurring in the aggregation tubes was measured over 4-5 minutes with the aid of a computerized aggregometer.
The aggregation which occurred in test tubes containing only platelet suspension was evaluated as 0%, whereas the aggregation which occurred in test tubes containing platelet suspension and PAF preparation was evaluated as 100%. The aggregation which still occurred during the inhibition of the PAF induced platelet aggregation due to the addition of the test substances was measured, and the resulting aggregation inhibition was calculated therefrom in %.

mice = assay: Determination of minimum toxic dose; assay type: in vivo; conditions: mouse, per os; lowest dose producing death or severe toxic symptoms, maximum dose 300 mg/kg, 24 hours
Method: 2. Determination of Minimum Toxic Dose
Maximum doses of 300 mg/kg of the test substance were administered orally to male mice weighing 20-25 g. The animals were observed carefully for 3 hours for toxicity symptoms. In addition, all symptoms and deaths were recorded over a period of 24 hours after administration. Associated symptoms were also observed and recorded. If death or severe toxic symptoms were observed, additional mice were administered increasingly lower doses. The lowest dose which produced death or severe toxic symptoms is given in the following Table B as the minimum toxic dose.

[4] = zymosan-stimulated mouse peritoneal macrophage cells, 10^-5 mole/l

SMILES | inhibition at 10 µM [1, 4] [%] | inhibition at 10 µM [2, 4] [%] | % inhibition of the PAF-induced aggregation of rabbit blood platelets [3] [%] | Minimum toxic dose (mice) [mg/kg] | inhibition at 10 µM ([1]; Mus musculus) [%] | inhibition at 10 µM ([2]; Mus musculus) [%]
Cc1cc2c(cc1C)SC(CCCCN1CC=C(c3ccccc3)CC1)C(=O)N2 (stereo not shown) [Example 19] | 16 | 57 | 72 | – | – | –
O=C1Nc2ccccc2SC1CCCN1CCC(Cc2ccccc2)CC1 (stereo not shown) [Example 21] | 11 | 24 | 33 | 100 | – | –
N#CC1(c2ccccc2)CCN(CCCC2Oc3ccc(Cl)cc3NC2=O)CC1 (stereo not shown) [Example 14] | – | – | 57 | – | 25 | 10
